Experimental data from patent US10638959B2, “Oral pH and buffering capacity modifiers” (CAO Group, LLC, priority 2010, dated 2020).
“Also recorded” adds a separate entry of the source.

Test: Immediate release of calcium ion of various salts by a calcium test kit by EM Quant
Assay type: physicochemical
Settings: contact with water

**Q.** With CC(O)C(=O)[O-].CC(O)C(=O)[O-].O.O.O.O.O.[Ca+2] (centres unmarked) [Calcium lactate pentahydrate] as the compound, how does the “Immediate release of calcium ion (availability of calcium ion)” value read?
**A.** The value was “most readily available calcium ion source”.

**Q.** For “Calcium ascorbate [Calcium ascorbate (citrate)]”, which “Immediate release of calcium ion (availability of calcium ion)” value is on record?
**A.** Its value is “most readily available calcium ion source; also recorded: provided calcium ions on contact with water”.
